Experimental data as given in patent publication US9185914B2, “Substituted 5-(cyclohex-2-en-1-yl)-penta-2,4-dienes and 5-(cyclohex-2-en-1-yl)-pent-2-en-4-ines as active agents against abiotic stress in plants” (BAYER INTELLECTUAL PROPERTY GMBH, priority 2011, dated 2015).

Experiments:
Format in all cases: in vivo
Conditions in all cases: mean of three results
Triticum aestivum = test: Drought stress test, spray application to greenhouse plants (Triticum aestivum)
Description: (§1) Seeds of monocotyledonous and dicotyledonous crop plants were laid out in sandy loam in wood-fiber pots, covered with soil and cultivated in a greenhouse under good growth conditions. The test plants were treated at the early leaf stage (BBCH10-BBCH13). To ensure uniform water supply before commencement of stress, the potted plants were supplied with the maximum amount of water immediately beforehand by dam irrigation and, after application, transferred into plastic inserts in order to prevent subsequent, excessively rapid drying. The compounds according to the invention, formulated in the form of wettable powders (WP), wettable granules (WG), suspension concentrates (SC) or emulsion concentrates (EC), were sprayed onto the green parts of the plants as an aqueous suspension at an equivalent water application rate of 600 l/ha with addition of 0.2% wetting agent (agrotin). Substance application is followed immediately by stress treatment of the plants (cold or drought stress). For cold stress treatment, the plants were kept under the following controlled conditions: • “day”: 12 hours with illumination at 8° C. • “night”: 12 hours without illumination at 1° C.
(§2) Drought stress was induced by gradual drying out under the following conditions: • “day”: 14 hours with illumination at 26° C. • “night”: 10 hours without illumination at 18° C.
(§3) The duration of the respective stress phases was guided mainly by the state of the untreated (=treated with blank formulation but without test compound), stressed control plants and thus varied from crop to crop. It was ended (by re-irrigating or transfer to a greenhouse with good growth conditions) as soon as irreversible damage was observed on the untreated, stressed control plants. In the case of dicotyledonous crops, for example oilseed rape and soybeans, the duration of the drought stress phase varied between 3 and 5 days; in the case of monocotyledonous crops, for example wheat, barley or corn, it varied between 6 and 10 days. The duration of the cold stress phase varied between 12 and 14 days.
(§4) The end of the stress phase was followed by an approx. 5-7-day recovery phase, during which the plants were once again kept under good growth conditions in a greenhouse. In order to rule out any influence of the effects observed by any fungicidal action of the test compounds, it was additionally ensured that the tests proceeded without fungal infection and without infection pressure.
(§5) After the recovery phase had ended, the intensities of damage were rated visually in comparison to untreated, unstressed controls of the same age (in the case of drought stress) or the same growth stage (in the case of cold stress). The intensity of damage was first recorded as a percentage (100%=plants have died, 0%=like control plants). These values were then used to calculate the efficacy of the test compounds (=percentage reduction in the intensity of damage as a result of substance application) by the following formula:
(§6) [formula] EF: efficacy (%) DVus: damage value of the untreated, stressed control DVts: damage value of the plants treated with test compound
(§7) The tables below list mean values in each case from three results of the same test.
(§8) Efficacies of selected compounds of the formula (I) under drought stress: […]

Zea mays = test: Drought stress test, spray application to greenhouse plants (Zea mays)
Description: as §1, §2, §3, §4, §5, §6, §7, §8

Brassica napus = test: Drought stress test, spray application to greenhouse plants (Brassica napus)
Description: as §1, §2, §3, §4, §5, §6, §7, §8

In the case of `CCOC(=O)C=C(C#CC1(O)C(C)=CC(=O)CC1(C)C)C1CCCC1` (centres unmarked) [I.1-122], the “EF (TRZAS), efficacy = percentage reduction in the intensity of damage” value (Triticum aestivum; dosage 25 g/ha) is reported as >5%.

For `CCC(C=CC1(O)C(C)=CC(=O)CC1(C)C)=CC(=O)O` (centres unmarked) [I.1-20], the “EF (ZEAMX), efficacy = percentage reduction in the intensity of damage” value (Zea mays; dosage 250 g/ha) was >5%, the “EF (BRSNS), efficacy = percentage reduction in the intensity of damage” value (Brassica napus; dosage 250 g/ha) was >5% and the “EF (TRZAS), efficacy = percentage reduction in the intensity of damage” value (Triticum aestivum; dosage 250 g/ha) was >5%.

`CCC(C#CC1(O)C(C)=CC(=O)CC1(C)C)=CC(=O)OC` (centres unmarked) [I.1-142] was tested, and the “EF (ZEAMX), efficacy = percentage reduction in the intensity of damage” value (Zea mays; dosage 250 g/ha) was >5%, the “EF (BRSNS), efficacy = percentage reduction in the intensity of damage” value (Brassica napus; dosage 250 g/ha) was >5% and the “EF (TRZAS), efficacy = percentage reduction in the intensity of damage” value (Triticum aestivum; dosage 250 g/ha) was >5%.

`CCCCCCC(C#CC1(O)C(C)=CC(=O)CC1(C)C)=CC(=O)OCC` (centres unmarked) [I.1-72] was tested, and the “EF (BRSNS), efficacy = percentage reduction in the intensity of damage” value (Brassica napus; dosage 250 g/ha) was >5%.

For `CCOC(=O)/C=C(\C=C\C1(O)C(C)=CC(=O)CC1(C)C)C(F)(F)F` (centres unmarked) [I.1-16, Ethyl (2E,4E)-5-(1-hydroxy-2,6,6-trimethyl-4-oxocyclohex-2-en-1-yl)-3-(trifluoromethyl)penta-2,4-dienoate], the “EF (BRSNS), efficacy = percentage reduction in the intensity of damage” value (Brassica napus; dosage 250 g/ha) was >5% and the “EF (TRZAS), efficacy = percentage reduction in the intensity of damage” value (Triticum aestivum; dosage 250 g/ha) was >5%.

For `CCC(C=CC1(O)C(C)=CC(=O)CC1(C)C)=CC(=O)OC` (centres unmarked) [I.1-144], the “EF (BRSNS), efficacy = percentage reduction in the intensity of damage” value (Brassica napus; dosage 25 g/ha) was >5% and the “EF (TRZAS), efficacy = percentage reduction in the intensity of damage” value (Triticum aestivum; dosage 25 g/ha) was >5%.

`CCC/C(C#CC1(O)C(C)=CC(=O)CC1(C)C)=C/C(=O)OCC` (centres unmarked) [I.1-2, Ethyl (2Z)-3-[(1-hydroxy-2,6,6-trimethyl-4-oxocyclohex-2-en-1-yl)ethynyl]hex-2-enoate] was tested, and the “EF (BRSNS), efficacy = percentage reduction in the intensity of damage” value (Brassica napus; dosage 250 g/ha) was >5% and the “EF (TRZAS), efficacy = percentage reduction in the intensity of damage” value (Triticum aestivum; dosage 250 g/ha) was >5%.

For `CCCCC(C#CC1(O)C(C)=CC(=O)CC1(C)C)=CC(=O)OCC` (centres unmarked) [I.1-60], the “EF (BRSNS), efficacy = percentage reduction in the intensity of damage” value (Brassica napus; dosage 250 g/ha) was >5% and the “EF (TRZAS), efficacy = percentage reduction in the intensity of damage” value (Triticum aestivum; dosage 250 g/ha) was >5%.

In the case of `CCCCCCC(C=CC1(O)C(C)=CC(=O)CC1(C)C)=CC(=O)OCC` (centres unmarked) [I.1-74], the “EF (BRSNS), efficacy = percentage reduction in the intensity of damage” value (Brassica napus; dosage 250 g/ha) is reported as >5%.

For `CCOC(=O)C=C(C=CC1(O)C(C)=CC(=O)CC1(C)C)C1CCCC1` (centres unmarked) [I.1-124], the “EF (TRZAS), efficacy = percentage reduction in the intensity of damage” value (Triticum aestivum; dosage 250 g/ha) was >5%.

For `CCOC(=O)C=C(C#CC1(O)C(C)=CC(=O)CC1(C)C)CC` (centres unmarked) [I.1-8], the “EF (BRSNS), efficacy = percentage reduction in the intensity of damage” value (Brassica napus; dosage 250 g/ha) was >5% and the “EF (TRZAS), efficacy = percentage reduction in the intensity of damage” value (Triticum aestivum; dosage 250 g/ha) was >5%.

For `CCC(C#CC1(O)C(C)=CC(=O)CC1(C)C)=CC(=O)NC(C)C` (centres unmarked) [I.2-14], the “EF (ZEAMX), efficacy = percentage reduction in the intensity of damage” value (Zea mays; dosage 25 g/ha) was >5%.

In the case of `CCOC(=O)C=C(C=CC1(O)C(C)=CC(=O)CC1(C)C)CC` (centres unmarked) [I.1-10], the “EF (ZEAMX), efficacy = percentage reduction in the intensity of damage” value (Zea mays; dosage 250 g/ha) is reported as >5%, the “EF (BRSNS), efficacy = percentage reduction in the intensity of damage” value (Brassica napus; dosage 250 g/ha) is reported as >5% and the “EF (TRZAS), efficacy = percentage reduction in the intensity of damage” value (Triticum aestivum; dosage 250 g/ha) is reported as >5%.

With `CCOC(=O)/C=C(\C#CC1(O)C(C)=CC(=O)CC1(C)C)C(F)(F)F` (centres unmarked) [I.1-14, Ethyl (2E)-5-(1-hydroxy-2,6,6-trimethyl-4-oxocyclohex-2-en-1-yl)-3-(trifluoromethyl)pent-2-en-4-ynoate] the “EF (ZEAMX), efficacy = percentage reduction in the intensity of damage” value (Zea mays; dosage 25 g/ha) was >5%.

`CC1=CC(=O)CC(C)(C)C1(O)C=CC(=CC(=O)O)C1CC1` (centres unmarked) [I.1-46] was tested, and the “EF (ZEAMX), efficacy = percentage reduction in the intensity of damage” value (Zea mays; dosage 250 g/ha) was >5%, the “EF (BRSNS), efficacy = percentage reduction in the intensity of damage” value (Brassica napus; dosage 250 g/ha) was >5% and the “EF (TRZAS), efficacy = percentage reduction in the intensity of damage” value (Triticum aestivum; dosage 250 g/ha) was >5%.

For `CCOC(=O)C=C(C=CC1(O)C(C)=CC(=O)CC1(C)C)C(C)(C)C` (centres unmarked) [I.1-92], the “EF (ZEAMX), efficacy = percentage reduction in the intensity of damage” value (Zea mays; dosage 250 g/ha) was >5% and the “EF (TRZAS), efficacy = percentage reduction in the intensity of damage” value (Triticum aestivum; dosage 250 g/ha) was >5%.

`CC1=CC(=O)CC(C)(C)C1(O)C#C/C(=C\C(=O)O)C(F)(F)F` (centres unmarked) [I.1-23, (2E)-5-(1-Hydroxy-2,6,6-trimethyl-4-oxocyclohex-2-en-1-yl)-3-(trifluoromethyl)pent-2-en-4-ynoic acid] was tested, and the “EF (ZEAMX), efficacy = percentage reduction in the intensity of damage” value (Zea mays; dosage 250 g/ha) was >5%, the “EF (BRSNS), efficacy = percentage reduction in the intensity of damage” value (Brassica napus; dosage 250 g/ha) was >5% and the “EF (TRZAS), efficacy = percentage reduction in the intensity of damage” value (Triticum aestivum; dosage 250 g/ha) was >5%.

With `CCOC(=O)C=C(C=CC1(O)C(C)=CC(=O)CC1(C)C)C1CC1` (centres unmarked) [I.1-116] the “EF (BRSNS), efficacy = percentage reduction in the intensity of damage” value (Brassica napus; dosage 250 g/ha) was >5% and the “EF (TRZAS), efficacy = percentage reduction in the intensity of damage” value (Triticum aestivum; dosage 250 g/ha) was >5%.

In the case of `CCCCCC(C=CC1(O)C(C)=CC(=O)CC1(C)C)=CC(=O)OCC` (centres unmarked) [I.1-68], the “EF (BRSNS), efficacy = percentage reduction in the intensity of damage” value (Brassica napus; dosage 250 g/ha) is reported as >5%.

`CCOC(=O)C=C(C=CC1(O)C(C)=CC(=O)CC1(C)C)C(C)C` (centres unmarked) [I.1-86] was tested, and the “EF (TRZAS), efficacy = percentage reduction in the intensity of damage” value (Triticum aestivum; dosage 250 g/ha) was >5%.

For `CCCC(=C/C(=O)OCC)/C=C/C1(O)C(C)=CC(=O)CC1(C)C` (centres unmarked) [I.1-4, Ethyl (2Z)-3-[(E)-2-(1-hydroxy-2,6,6-trimethyl-4-oxocyclohex-2-en-1-yl)vinyl]hex-2-enoate], the “EF (BRSNS), efficacy = percentage reduction in the intensity of damage” value (Brassica napus; dosage 250 g/ha) was >5% and the “EF (TRZAS), efficacy = percentage reduction in the intensity of damage” value (Triticum aestivum; dosage 250 g/ha) was >5%.

In the case of `CCOC(=O)C=C(C#CC1(O)C(C)=CC(=O)CC1(C)C)C(C)C` (centres unmarked) [I.1-84], the “EF (ZEAMX), efficacy = percentage reduction in the intensity of damage” value (Zea mays; dosage 250 g/ha) is reported as >5%.

With `CCC(C#CC1(O)C(C)=CC(=O)CC1(C)C)=CC(=O)NC1CC1` (centres unmarked) [I.2-18] the “EF (ZEAMX), efficacy = percentage reduction in the intensity of damage” value (Zea mays; dosage 25 g/ha) was >5% and the “EF (BRSNS), efficacy = percentage reduction in the intensity of damage” value (Brassica napus; dosage 250 g/ha) was >5%.

With `CCOC(=O)C=C(C#CC1(O)C(C)=CC(=O)CC1(C)C)C1CC1` (centres unmarked) [I.1-114] the “EF (BRSNS), efficacy = percentage reduction in the intensity of damage” value (Brassica napus; dosage 250 g/ha) was >5% and the “EF (TRZAS), efficacy = percentage reduction in the intensity of damage” value (Triticum aestivum; dosage 250 g/ha) was >5%.
